Consider 3 compounds from patent US8536190B2, “Treating unwanted ocular conditions using an ascomycin macrolactam” (Allergan, Inc., priority 2007, dated 2013).

Type in all cases: in vivo, human
Experiment [1] is described as follows: Preventative treatment of ocular conditions during weekly docetaxel treatments. As to conditions: person, medication containing 1.0% pimecrolimus during the entire course of docetaxel treatments. The source says:
A person is diagnosed with metastatic breast cancer. Their physician decides that the best course of cancer therapy includes weekly docetaxel treatments. In order to reduce or prevent the occurrence of unwanted ocular conditions as a result of the docetaxel treatments, the physician also prescribes a medication containing 1.0% pimecrolimus to be administered during the entire course of docetaxel treatments.

A short description of experiment [2]: Treatment of epiphora (canalicular stenosis) after docetaxel chemotherapy. Particulars: person, docetaxel every three weeks, medication containing 0.03%, after one week of daily treatment. The text has this:
A physician diagnosis a person complaining of excessive tearing with epiphora. The physician determines that the cause of this excessive tearing was canalicular stenosis, and believes that this ocular condition was brought on by the person's prostate cancer therapy, which included docetaxel treatments every three weeks. The patient receives a medication containing 0.03% […].

Experiment [3] in a line: Treatment of epiphora (punctal stenosis) in a patient undergoing docetaxel treatments. Particulars: person, docetaxel every three weeks, medication containing 0.1% tacrolimus, after one week of daily treatment. The text has this: A person undergoing docetaxel treatments every three weeks as part of their breast cancer therapy developed epiphora during the seventh week. […] The patient receives a medication containing 0.1% tacrolimus.

On to `CC[C@@H]1/C=C(\C)C[C@H](C)C[C@H](OC)[C@H]2O[C@@](O)(C(=O)C(=O)N3CCCC[C@H]3C(=O)O[C@H](/C(C)=C/[C@@H]3CC[C@H](Cl)[C@H](OC)C3)[C@H](C)[C@@H](O)CC1=O)[C@H](C)C[C@@H]2OC` [pimecrolimus, Pimecrolimus], for which, in experiment [1], the “occurrence of epiphora or symptoms of an ocular condition” value is on record as “does not exhibit epiphora or show any symptoms of an ocular condition”. Turning to Ascomycin [acromycin], in experiment [2], the “excessive tearing (epiphora) after treatment” value is “the excessive tearing subsides”. As for Tacrolimus, the “excessive tearing (epiphora) after treatment” value in experiment [3] is listed as “the excessive tearing subsides”.
